# Target: T1, H+/K+ATPase (Oryctolagus cuniculus, UniProt P27112)
# T1 construct: The stomach tissue of the rabbit was separated; from tissue; host or cells: rabbit stomach (fundus) mucosa; membrane pellet obtained by differential and Ficoll centrifugation
# Test: determination of compounds' inhibition of H+/K+ATPase enzyme activity (malachite green)
# Type: biochemical
# Conditions: enzyme extracted from rabbit stomach mucosa; 500 μM ATP; pH 6.5; 37° C.; OD 620 nm; read-out: IC50(μM) inhibition rate (IC50) of H+/K+ATPase enzyme activity
# Method: Test example: determination of compounds' inhibition of H+/K+ATPase enzyme activity
# The following experiment is used to determine the inhibitory effect of the compound of the present invention on the H+/K+ATPase enzyme activity.
# Enzyme working solution: titrating the enzyme, diluting the enzyme with buffer solution 1, and taking 5 μl of the diluted solution into 50 μl reaction system.
# ATP solution: 100 mM ATP was diluted to 5 mM with no K+buffer, and 5 μl of the diluted solution was added to the 50 μl reaction system, that is, the final concentration of ATP was 500 μM.
# MLG color development liquid: 0.12% MLG, 7.5% ammonium molybdate, 11% Tween-20 was mixed as 100:25:2, and adding 15 μl of the mixture into each well during detection.
# Buffer 1: 5 mM Tris-HCl pH 6.5, 5 mM magnesium chloride (magnesium chloride), 10 μM valinomycin (valinomycin).
# Buffer 2: 50 mM Tris-HCl pH 6.5, 5mM magnesium chloride (magnesium chloride), 10 μM valinomycin (valinomycin), 20 mM KCl.
# 3.1. H^+/K^+ ATPase enzyme extraction
# (1) The stomach tissue of the rabbit was separated, and the blood was washed with tap water, food residue.
# (5) After homogenization, if there were larger tissue particles, they could be removed by centrifugation (600 g, 10 min), and then the supernatant was transfered to a clean centrifuge tube. After centrifugation at 20000 g for 30 minutes, then the supernatant was transferred to a clean centrifuge tube at 100000 g for 90 minutes, and the precipitate was collected.
# (7) Resuspending the precipitate with homogenization buffer, blowing uniformly, and the protein concentration was measured by Bradford. Freezing in tubes at −80° C. for later use.
# 3.2. H+/K+ATPase activity experiment
# (1) Adding 35 μl of reaction buffer to each experimental well, and then adding 35 μl of buffer 1.
# (2) Adding 5 μl buffer 1 containing 10% DMSO to the whole enzyme and buffer well.
# (3) Adding 5 μl of 10× compound working solution to the compound well and mixing well.
# (4) Adding 5 μl of buffer 1 to the buffer well.
# (5) Adding 5 μl of 10× enzyme working solution to the remaining wells, mixing and incubating at 37° C. for 30minutes.
# (6) Adding 5 μl of 10×ATP working solution to all experimental wells, mixing and incubating at 37° C. for 20 min.
# (7) Adding 15 μl MLG chromogenic solution to all experimental wells, and uniformly mixing and incubating at room temperature for 5-30 min.
# (8) The reading number of 620 nm was detected by an M5 instrument.
# The inhibition rate is calculated with the following formula:
# Inhibition rate (IC50)=[OD (sample well)−OD (full enzyme well containing potassium chloride)]/[(OD (full enzyme well containing potassium chloride)−(OD (full enzyme well without potassium chloride)]×100%
# T1 sequence (P27112 whole entry): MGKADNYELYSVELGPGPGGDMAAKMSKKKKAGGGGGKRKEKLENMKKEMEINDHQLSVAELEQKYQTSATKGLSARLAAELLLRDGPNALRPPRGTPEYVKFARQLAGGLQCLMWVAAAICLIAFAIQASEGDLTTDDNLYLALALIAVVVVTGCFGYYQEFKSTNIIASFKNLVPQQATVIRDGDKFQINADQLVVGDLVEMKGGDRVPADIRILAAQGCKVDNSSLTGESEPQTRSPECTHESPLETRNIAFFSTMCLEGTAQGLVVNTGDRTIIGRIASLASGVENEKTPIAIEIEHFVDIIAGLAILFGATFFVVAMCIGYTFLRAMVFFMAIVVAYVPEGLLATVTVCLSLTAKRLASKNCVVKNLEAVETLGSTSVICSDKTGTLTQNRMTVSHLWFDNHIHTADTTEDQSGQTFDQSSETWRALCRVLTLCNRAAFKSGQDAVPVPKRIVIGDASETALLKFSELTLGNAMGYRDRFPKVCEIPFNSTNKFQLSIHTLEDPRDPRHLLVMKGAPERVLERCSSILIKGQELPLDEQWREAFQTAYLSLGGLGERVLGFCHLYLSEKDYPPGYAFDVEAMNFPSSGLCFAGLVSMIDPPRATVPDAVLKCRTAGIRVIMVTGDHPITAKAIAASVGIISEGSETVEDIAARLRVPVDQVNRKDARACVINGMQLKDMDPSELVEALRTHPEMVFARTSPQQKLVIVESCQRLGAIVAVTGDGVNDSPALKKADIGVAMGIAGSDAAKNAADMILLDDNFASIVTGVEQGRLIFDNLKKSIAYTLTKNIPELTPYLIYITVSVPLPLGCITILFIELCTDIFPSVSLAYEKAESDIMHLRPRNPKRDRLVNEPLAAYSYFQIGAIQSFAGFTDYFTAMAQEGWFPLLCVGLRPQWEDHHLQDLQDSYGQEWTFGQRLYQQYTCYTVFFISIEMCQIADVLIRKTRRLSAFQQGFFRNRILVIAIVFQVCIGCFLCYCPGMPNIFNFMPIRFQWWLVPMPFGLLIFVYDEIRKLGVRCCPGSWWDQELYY
# T1 sequence (P18597 whole entry partner): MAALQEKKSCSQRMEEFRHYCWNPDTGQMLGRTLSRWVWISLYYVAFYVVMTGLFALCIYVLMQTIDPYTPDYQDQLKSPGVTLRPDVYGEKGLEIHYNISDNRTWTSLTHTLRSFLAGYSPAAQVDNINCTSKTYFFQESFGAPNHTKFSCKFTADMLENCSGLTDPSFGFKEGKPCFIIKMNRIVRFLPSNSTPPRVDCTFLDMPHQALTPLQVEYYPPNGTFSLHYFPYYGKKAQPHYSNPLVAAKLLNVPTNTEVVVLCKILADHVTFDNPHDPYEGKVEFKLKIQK
row,Compound,IC50 [µM]
1,"CN1Cc2nn(Cc3cccnc3)c(-c3ccc4c(c3)CCO4)c2C1 [Example 1, 3-(2,3-dihydrobenzofuran-5-methyl)-5-methyl-2-(pyridin-3-ylmethyl)-2,4,5,6-tetrahydropyrrole[3,4-c]pyrazole]",3.55
2,"CN1Cc2nn(Cc3cccnc3)c(-c3ccc4occc4c3)c2C1 [Example 2, 3-(benzofuran-5-yl)-5-methyl-2-(pyridin-3-ylmethyl)-2,4,5,6-tetrahydropyrrole[3,4-c]pyrazole]",1.38
3,"CN1Cc2nn(Cc3cccnc3)c(-c3ccc4[nH]cnc4c3)c2C1 [Example 3, (5-methyl-2-(pyridin-3-ylmethyl)-2,4,5,6-tetrahydropyrrole[3,4-c]pyrazol-3-yl)-1H-benzo[d]imidazole]",24
4,"CN1Cc2nn(Cc3cccnc3)c(-c3ccccc3F)c2C1 [Example 4, (2-fluorophenyl)-5-methyl-2-(pyridin-3-ylmethyl)-2,4,5,6-tetrahydropyrrole[3,4-c]pyrazole]",0.674
5,"COc1ccc(Cn2nc3c(c2-c2ccccc2F)CN(C)C3)cn1 [Example 5, 3-(2-fluorobenzeneyl)-2-((6-methoxypyridin-3-yl)methyl)-5-methyl-2,4,5,6-tetrahydropyrrolo[3,4-c]pyrazole]",0.365

# From patent publication US20220259213A1, “PYRROLOPYRAZOLE DERIVATIVES, PREPARATION METHOD THEREOF AND APPLICATION THEREOF IN MEDICINE” (SHANGHAI MEDICILON INC., priority 2019, published 2022)
